Results as given in patent publication US6924302B2, “Substituted triazole diamine derivatives as kinase inhibitors” (Ortho McNeil Pharmaceutical, Inc., priority 2000, dated 2005).
Like-named read-outs stand apart in the source and are kept apart here.

Experiments:
[1] = system: HCT-116 colon carcinoma; test: Inhibition of Cell Proliferation (14C-thymidine incorporation), HCT-116; type: cell-based; details: Homo sapiens, HCT-116 cell line
How it was run: (§1)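 After seeding at 3000-8000 cells per well and a 24 h rest, compound is added and cells incubate 24 h; radiolabelled thymidine (0.2 uCi/well) then goes in for another 24 h. Washed wells are counted for incorporated 14C, relative to DMSO-only wells.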

[2] = system: A375 malignant melanoma; test: Inhibition of Cell Proliferation (14C-thymidine incorporation), A375; type: cell-based; details: Homo sapiens, A-375, A375 cell line
How it was run: as §1

[3] = biological target: Insulin Receptor Kinase (Homo sapiens, UniProt P06213); test: Kinase Selectivity Assay Insulin Receptor Kinase; type: biochemical; details: Kinase Selectivity, Tables 2a-2k; read-out: Insulin R Kinase IC50
How it was run: (§2)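 Inhibition was measured as reduced ^33P-γ-ATP labelling of a biotinylated peptide substrate immobilized on streptavidin plates after one hour at 30° C.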

[4] = system: HeLa cervical adenocarcinoma; test: Inhibition of Cell Proliferation (14C-thymidine incorporation), HeLa; type: cell-based; details: Homo sapiens, HeLa cell line
How it was run: as §1

[5] = biological target: T1, Casein Kinase 2 (alpha and beta subunits) (Homo sapiens, UniProt P68400); test: Kinase Selectivity Assay Casein Kinase 2; type: biochemical; details: Kinase Selectivity, Tables 2a-2k; read-out: Caseine Kinase 2 IC50
T1 construct: purchased New England Biolabs 6010; host or cells: E. coli
How it was run: as §2

[6] = biological target: T2, Protein Kinase A (Bos taurus, UniProt P00517); test: Kinase Selectivity Assay Protein Kinase A; type: biochemical, bovine; details: Kinase Selectivity, Tables 2a-2k; read-out: PKA IC50
T2 construct: purified from bovine heart; purchased Upstate Biotech 14-114; host or cells: bovine heart
How it was run: as §2

[7] = biological target: T3, PDGF-R (platelet derived growth factor receptor) beta subunit kinase domain (Homo sapiens, UniProt P09619); test: Kinase Selectivity Assay PDGF-R; type: biochemical; details: Kinase Selectivity, Tables 2a-2k; read-out: PDGF-R kinase IC50
T3 construct: nucleotides 1874-3507 of the human PDGF-R beta subunit kinase domain; polyhistidine (N)
How it was run: as §2

[8] = biological target: T4, VEGF-R (vascular endothelial growth factor receptor-2) (Rattus norvegicus, UniProt O08775); test: VEGF-R Screening Assay; type: biochemical; details: read-out: VEGF-R IC50
T4 construct: polyhistidine (6xHIS) (N)

[9] = Kinase Selectivity, Tables 2a-2k

T1 sequence (P68400 whole entry): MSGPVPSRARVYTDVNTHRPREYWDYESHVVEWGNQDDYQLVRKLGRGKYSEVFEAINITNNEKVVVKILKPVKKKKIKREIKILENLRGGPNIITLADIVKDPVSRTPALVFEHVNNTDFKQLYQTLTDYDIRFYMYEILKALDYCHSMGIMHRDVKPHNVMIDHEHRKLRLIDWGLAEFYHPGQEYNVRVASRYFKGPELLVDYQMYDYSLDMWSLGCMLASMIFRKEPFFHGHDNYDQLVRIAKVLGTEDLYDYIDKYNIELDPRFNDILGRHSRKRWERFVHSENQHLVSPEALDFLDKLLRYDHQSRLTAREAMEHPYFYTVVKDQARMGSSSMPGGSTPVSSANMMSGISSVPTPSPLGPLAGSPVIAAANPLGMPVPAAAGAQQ
T1 sequence (P67870 whole entry partner): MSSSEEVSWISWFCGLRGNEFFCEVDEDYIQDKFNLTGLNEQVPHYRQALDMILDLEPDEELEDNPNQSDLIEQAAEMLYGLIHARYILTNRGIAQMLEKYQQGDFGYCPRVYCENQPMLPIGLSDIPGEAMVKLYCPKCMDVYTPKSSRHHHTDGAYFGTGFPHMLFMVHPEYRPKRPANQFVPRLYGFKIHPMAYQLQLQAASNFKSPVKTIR
Insulin Receptor Kinase, sequence (P06213 980-1352): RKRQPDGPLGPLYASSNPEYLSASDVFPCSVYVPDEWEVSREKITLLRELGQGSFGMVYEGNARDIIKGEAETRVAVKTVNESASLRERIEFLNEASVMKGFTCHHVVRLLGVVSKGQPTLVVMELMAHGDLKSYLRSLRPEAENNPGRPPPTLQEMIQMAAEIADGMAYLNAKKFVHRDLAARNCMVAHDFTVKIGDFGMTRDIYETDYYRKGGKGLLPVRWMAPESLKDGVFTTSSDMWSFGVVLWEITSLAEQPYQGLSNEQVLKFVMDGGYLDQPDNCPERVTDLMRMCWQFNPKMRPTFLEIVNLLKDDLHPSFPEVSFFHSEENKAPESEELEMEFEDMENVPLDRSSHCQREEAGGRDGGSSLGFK
T4 sequence (O08775 786-1343): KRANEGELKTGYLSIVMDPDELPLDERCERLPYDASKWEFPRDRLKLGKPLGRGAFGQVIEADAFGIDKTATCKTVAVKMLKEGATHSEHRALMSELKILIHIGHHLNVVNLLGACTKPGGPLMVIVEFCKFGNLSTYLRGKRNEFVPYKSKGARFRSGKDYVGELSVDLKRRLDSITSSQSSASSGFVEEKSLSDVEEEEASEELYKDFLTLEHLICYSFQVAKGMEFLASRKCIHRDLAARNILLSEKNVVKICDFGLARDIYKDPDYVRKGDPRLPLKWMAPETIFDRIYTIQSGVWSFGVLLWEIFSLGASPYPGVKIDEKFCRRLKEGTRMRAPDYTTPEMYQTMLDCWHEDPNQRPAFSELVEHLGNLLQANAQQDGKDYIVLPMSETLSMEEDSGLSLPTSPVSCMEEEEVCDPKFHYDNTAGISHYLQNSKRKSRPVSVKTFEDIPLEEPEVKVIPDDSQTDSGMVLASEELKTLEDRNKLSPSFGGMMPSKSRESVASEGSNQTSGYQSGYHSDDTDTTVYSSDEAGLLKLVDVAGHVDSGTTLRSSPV
T3 sequence (P09619 564-1106): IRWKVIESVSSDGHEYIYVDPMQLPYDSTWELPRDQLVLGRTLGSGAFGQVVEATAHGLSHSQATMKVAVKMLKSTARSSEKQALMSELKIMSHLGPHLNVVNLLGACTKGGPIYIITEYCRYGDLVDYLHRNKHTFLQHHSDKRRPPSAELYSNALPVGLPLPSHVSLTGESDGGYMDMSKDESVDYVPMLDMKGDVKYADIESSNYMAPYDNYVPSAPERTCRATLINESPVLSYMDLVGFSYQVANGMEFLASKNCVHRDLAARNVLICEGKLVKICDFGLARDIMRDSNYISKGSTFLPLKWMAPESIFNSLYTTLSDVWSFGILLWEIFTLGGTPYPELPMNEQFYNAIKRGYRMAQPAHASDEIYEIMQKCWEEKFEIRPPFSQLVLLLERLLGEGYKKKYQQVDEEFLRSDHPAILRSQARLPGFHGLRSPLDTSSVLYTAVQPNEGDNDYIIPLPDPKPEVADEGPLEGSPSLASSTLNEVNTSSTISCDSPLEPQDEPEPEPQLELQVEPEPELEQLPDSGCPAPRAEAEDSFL

SMILES	IC50 [1] [nM]	IC50 [2] [nM]	IC50 [3] [µM]	IC50 [4] [nM]	IC50 [5] [µM]	IC50 [6] [µM]	IC50 [7] [nM]	IC50 [8, 9] [nM]	IC50 ([8]; Table 1) [nM]
Nc1nc(Nc2ccc(S(N)(=O)=O)cc2)nn1C(=O)c1c(F)cccc1F [Cpd 1, 4-[[5-amino-1-(2,6-difluorobenzoyl)-1H-1,2,4-triazol-3-yl]amino]-benzenesulfonamide]	254	447	> 100	284	> 100	> 100			
Nc1nc(Nc2ccc(S(N)(=O)=O)cc2)nn1C(=O)c1sccc1F [Cpd 16, 4-[[5-amino-1-[(3-fluoro-2-thienyl)carbonyl]-1H-1,2,4-triazol-3-yl]amino]-benzenesulfonamide]	213	942	> 100	263	> 100		100	13.7	13.7
Nc1nc(Nc2ccc(S(N)(=O)=O)cc2)nn1C(=O)c1sccc1Cl [Cpd 17, 4-[[5-amino-1-[(3-chloro-2-thienyl)carbonyl]-1H-1,2,4-triazol-3-yl]amino]-benzenesulfonamide]	309	4970	2.02	215	2.65		81	27	27
Nc1nc(Nc2ccc(S(N)(=O)=O)cc2)nn1C(=O)c1ccsc1 [Cpd 30, 4-[[5-amino-1-(3-thienylcarbonyl)-1H-1,2,4-triazol-3-yl]amino]-benzenesulfonamide]	1930	8240	4.96	215	7.6		392	40.6	40.6
CCc1ccc(C(=O)n2nc(Nc3ccc(S(N)(=O)=O)cc3)nc2N)s1 [Cpd 32, 4-[[5-amino-1-[(5-ethyl-2-thienyl)carbonyl]-1H-1,2,4-triazol-3-yl]amino]-benzenesulfonamide]	26		0.123	71	0.527	> 100	74	22	21.9
Cc1nc(C)c(C(=O)n2nc(Nc3ccc(S(N)(=O)=O)cc3)nc2N)s1 [Cpd 34, 4-[[5-amino-1-[(2,4-dimethyl-5-thiazolyl)carbonyl]-1H-1,2,4-triazol-3-yl]amino]-benzenesulfonamide]	996		> 10	707	> 100	> 100	292		
Nc1nc(Nc2ccc(S(N)(=O)=O)cc2)nn1C(=O)c1sccc1Br [Cpd 35, 4-[[5-amino-1-[(3-bromo-2-thienyl)carbonyl]-1H-1,2,4-triazol-3-yl]amino]-benzenesulfonamide]	172			663					46.3
Nc1nc(Nc2ccc(S(N)(=O)=O)cc2)nn1C(=O)C1CCCC1 [Cpd 38, 4-[[5-amino-1-(cyclopentylcarbonyl)-1H-1,2,4-triazol-3-yl]amino]-benzenesulfonamide]	2270		> 100	4560	> 100	> 100	6370		
Nc1nc(Nc2ccc(S(N)(=O)=O)cc2)nn1C(=O)C1CCCCC1 [Cpd 39, 4-[[5-amino-1-(cyclohexylcarbonyl)-1H-1,2,4-triazol-3-yl]amino]-benzenesulfonamide]	1410		19.4	270	> 100	> 100	3980		
CC(C)(C)c1ccc(C(=O)n2nc(Nc3ccc(S(N)(=O)=O)cc3)nc2N)s1 [Cpd 51, 4-[[5-amino-1-[[5-(1,1-dimethylethyl)-2-thienyl]carbonyl]-1H-1,2,4-triazol-3-yl]amino]-benzenesulfonamide]		333	0.077	220	1.78	0.911	199	19	19
Cc1ccccc1C(=O)n1nc(Nc2ccc(S(N)(=O)=O)cc2)nc1N [Cpd 57, 4-[[5-amino-1-(2-methylbenzoyl)-1H-1,2,4-triazol-3-yl]amino]-benzenesulfonamide]	95	113	> 100	339	> 100	> 100	4190		
Cc1ccc(F)c(C(=O)n2nc(Nc3ccc(S(N)(=O)=O)cc3)nc2N)c1Cl [Cpd 69, 4-[[5-amino-1-(2-chloro-6-fluoro-3-methylbenzoyl)-1H-1,2,4-triazol-3-yl]amino]-benzenesulfonamide]	1720	441	45.1	218	> 100	46.6	100		
Nc1nc(Nc2ccc(S(N)(=O)=O)cc2)nn1C(=O)c1c(F)cccc1Cl [Cpd 70, 4-[[5-amino-1-(2-chloro-6-fluorobenzoyl)-1H-1,2,4-triazol-3-yl]amino]-benzenesulfonamide]	1580	1100	> 100	196	> 100	34.2	16200		
CN1CCN(c2ccc(Nc3nc(N)n(C(=O)c4c(F)cccc4F)n3)cc2)CC1 [Cpd 71, 1-(2,6-difluorobenzoyl)-N^3-[4-(4-methyl-1-piperazinyl)phenyl]-1H-1,2,4-triazole-3,5-diamine]			35.3	1920	> 100	> 100	27000	430	430
CNS(=O)(=O)c1ccc(Nc2nc(N)n(C(=O)c3c(F)cccc3F)n2)cc1 [Cpd 80, 4-[[5-amino-1-(2,6-difluorobenzoyl)-1H-1,2,4-triazol-3-yl]amino]-N-methyl-benzenesulfonamide]				880					935
CNS(=O)(=O)c1ccc(Nc2nc(N)n(C(=O)c3c(F)ccc(C)c3F)n2)cc1 [Cpd 81, 4-[[5-amino-1-(2,6-difluoro-3-methylbenzoyl)-1H-1,2,4-triazol-3-yl]amino]-N-methyl-benzenesulfonamide]	778	1770	29.6	189	> 100	> 100	7760		
CNS(=O)(=O)c1ccc(Nc2nc(N)n(C(=O)c3sccc3C)n2)cc1 [Cpd 82, 4-[[5-amino-1-[(3-methyl-2-thienyl)carbonyl]-1H-1,2,4-triazol-3-yl]amino]-N-methyl-benzenesulfonamide]			1.1	245	> 100	> 100	42		
CCc1ccc(C(=O)n2nc(Nc3ccc(S(=O)(=O)NC)cc3)nc2N)s1 [Cpd 84, 4-[[5-amino-1-[(5-ethyl-2-thienyl)carbonyl]-1H-1,2,4-triazol-3-yl]amino]-N-methyl-benzenesulfonamide]			0.172	142	1.67	2.2	280		
Cc1ccsc1C(=O)n1nc(Nc2ccc(S(=O)(=O)NCCN(C)C)cc2)nc1N [Cpd 104, 4-[[5-amino-1-[(3-methyl-2-thienyl)carbonyl]-1H-1,2,4-triazol-3-yl]amino]-N-[2-(dimethylamino)ethyl]-benzenesulfonamide]	41	108	2.09	186	> 100	> 100	192		
Cc1cc(C)c(C(=O)n2nc(Nc3ccc(NS(C)(=O)=O)cc3)nc2N)s1 [Cpd 108, N-[4-[[5-amino-1-[(3,5-dimethyl-2-thienyl)carbonyl]-1H-1,2,4-triazol-3-5 yl]amino]phenyl]-methanesulfonamide]					> 10		217	30	30.7
Cc1ccsc1C(=O)n1nc(Nc2ccc(N3CCNC3=O)cc2)nc1N [Cpd 113, 1-[4-[[5-amino-1-[(3-methyl-2-thienyl)carbonyl]-1H-1,2,4-triazol-3-yl]amino]phenyl]-2-imidazolidinone]	281		> 10	242	> 100	> 100	370	30	30.2
Cc1ccc(F)c(C(=O)n2nc(N)nc2Nc2ccc(S(N)(=O)=O)cc2)c1F [Cpd 123, 4-[[3-amino-1-(2,6-difluoro-3-methylbenzoyl)-1H-1,2,4-triazol-5-yl]amino]-benzenesulfonamide]	4140	> 10000	> 100	28500	> 100	> 100	> 100000		
